Measured values as given in US20230047816A1 (priority 2018, published 2023).

Biological target: Recombinant full length human PFKFB3 (Homo sapiens, UniProt Q16875)
Test: PFKFB3 kinase activity assay (ADP production, ADP-Glo)

Chain of Recombinant full length human PFKFB3 (Q16875 whole entry): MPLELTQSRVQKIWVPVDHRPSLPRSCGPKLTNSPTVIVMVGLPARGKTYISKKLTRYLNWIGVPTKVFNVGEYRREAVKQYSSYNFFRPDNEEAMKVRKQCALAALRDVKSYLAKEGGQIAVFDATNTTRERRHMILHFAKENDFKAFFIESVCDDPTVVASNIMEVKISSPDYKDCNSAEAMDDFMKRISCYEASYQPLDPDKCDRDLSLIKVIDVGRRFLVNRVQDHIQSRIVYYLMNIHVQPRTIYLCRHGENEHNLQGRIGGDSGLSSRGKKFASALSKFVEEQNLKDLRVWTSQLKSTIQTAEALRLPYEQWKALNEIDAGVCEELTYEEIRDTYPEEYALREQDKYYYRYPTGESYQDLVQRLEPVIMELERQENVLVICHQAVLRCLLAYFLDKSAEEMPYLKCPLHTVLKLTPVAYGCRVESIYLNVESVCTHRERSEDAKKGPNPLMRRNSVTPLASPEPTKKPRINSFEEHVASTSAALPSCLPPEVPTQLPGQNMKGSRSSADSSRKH

IC50 [nM]	SMILES
< 20000	COC(=O)c1cc(-c2ccccc2)ccc1N1C(=O)c2ccc(-c3c[nH]nn3)cc2C1=O [Example 33]
500 to 2000	COC(=O)c1cc(-c2ccccc2)c(OC)cc1N1C(=O)c2ccc(C(=O)O)cc2C1=O [Example 42]
< 20000	CNC(=O)c1cc(CO)ccc1C(=O)Nc1sc(C)c(-c2ccc(OC)cc2)c1C#N [Example 15, N1-[3-cyano-4-(4-methoxyphenyl)-5-methylthiophen-2-yl]-4-(hydroxymethyl)-N2-methylbenzene-1,2-dicarboxamide]
2000 to 5000	O=C(O)c1ccc(-c2cccs2)cc1N1C(=O)c2ccc(-c3c[nH]nn3)cc2C1=O [Example 56]
< 500	CC1(C)CCN(c2ccc(C(=O)O)c(NC(=O)c3cc(O)c(C(=O)O)cc3C(=O)O)c2)CC1 [Example 53, 4-{[2-carboxy-5-(4,4-dimethylpiperidin-1-yl)phenyl]carbamoyl}-6-hydroxybenzene-1,3-dicarboxylic acid]
< 20000	COC(=O)c1ccc(-c2ccccc2)cc1N1C(=O)c2ccc(C(=O)NS(C)(=O)=O)cc2C1=O [Example 41]
2000 to 5000	O=C(NS(=O)(=O)c1ccccc1)c1ccc2c(c1)C(=O)N(c1ccc(-c3ccccc3)cc1C(=O)O)C2=O [Example 22]
< 500	COc1ccc(-c2c(C)sc(N3C(=O)c4ccc(C(=O)O)cc4C3=O)c2C#N)cc1 [Example 6]
2000 to 5000	O=C1c2ccc(-c3c[nH]nn3)cc2C(=O)N1c1cc(-c2ccccc2)ccc1-c1nnn[nH]1 [Example 54]
2000 to 5000	O=C(O)c1ccc2c(c1)C(=O)N(c1ccc(-c3ccccc3)cc1CO)C2=O [Example 4]
< 500	CC1(C)CCC(c2ccc(C(=O)O)c(NC(=O)c3cc(F)c(C(=O)O)cc3C(=O)O)c2)CC1 [Example 63, 4-{[2-carboxy-5-(4,4-dimethylcyclohexyl)phenyl]carbamoyl}-6-fluorobenzene-1,3-dicarboxylic acid]
5000 to 20000	CCCCS(=O)(=O)NC(=O)c1ccc2c(c1)C(=O)N(c1sc(C)c(-c3ccc(OC)cc3)c1C#N)C2=O [Example 15]
500 to 2000	COC(=O)c1ccc(-c2ccccc2)cc1N1C(=O)c2ccc(C(=O)O)cc2C1=O [Example 37]
< 500	O=C(O)c1ccc2c(c1)C(=O)N(c1cc(-c3ccc(F)cc3F)ccc1C(=O)O)C2=O [Example 53]
< 500	O=C(O)c1cc(-c2cnn[nH]2)ccc1CNc1cc(-c2ccc(F)c(F)c2)ccc1C(=O)O [Example 6, 3-({[2-carboxy-4-(2H-1,2,3-triazol-4-yl)phenyl]methyl}amino)-3′,4′-difluoro-[1,1′-biphenyl]-4-carboxylic acid]
< 20000	CN1CCN(CCOC(=O)c2ccc(-c3ccc(F)c(F)c3)cc2N2Cc3ccc(CO)cc3C2=O)CC1 [compound 155, 2-(4-methylpiperazin-1-yl)ethyl 3′,4′-difluoro-3-(6-(hydroxymethyl)-1-oxoisoindolin-2-yl)biphenyl-4-carboxylate]

More lines, now with the values behind:

SMILES	IC50 [nM]
O=C1c2ccc(-c3c[nH]nn3)cc2C(=O)N1c1cc(-c2ccccc2)cnc1O [Compound 83, 2-(2-Hydroxy-5-phenylpyridin-3-yl)-5-(1H-[1,2,3]triazol-4-yl)-isoindole-1,3-dione]	2000 to 5000
Cc1oc(=O)oc1COC(=O)c1ccc(-c2ccc(F)c(F)c2)cc1N1Cc2ccc(-c3c[nH]nn3)cc2C1=O [Compound 116, 3′,4′-Difluoro-3-[1-oxo-6-(1H-[1,2,3]triazol-4-yl)-1,3-dihydro-isoindol-2-yl]-biphenyl-4-carboxylic acid (5-methyl-2-oxo-[1,3]dioxol-4-yl)methyl ester]	5000 to 20000
O=C(O)c1ccc(-c2ccc(F)c(F)c2)cc1N1Cc2ccc(-c3nnn[nH]3)cc2C1=O [Compound 100, 3′,4′-Difluoro-3-[1-oxo-6-(1H-tetrazol-5-yl)-1,3-dihydroisoindol-2-yl]biphenyl-4-carboxylic Acid]	500 to 2000
COc1ccc(-c2ccc(C(=O)O)c(N3C(=O)c4ccc(C(=O)O)cc4C3=O)c2)cc1F [Compound 144, 2-(4-Carboxy-3′-fluoro-4′-methoxy[1,1′-biphenyl]-3-yl)-1,3-dioxo-2,3-dihydro-1H-isoindole-5-carboxylic acid]	< 500
O=C(O)c1ccc(C(=O)O)c(C(=O)Nc2cc(-c3ccc(F)cc3)ccc2C(=O)O)c1 [Example 1, 2-({4-carboxy-4′-fluoro-[1,1′-biphenyl]-3-yl}carbamoyl)benzene-1,4-dicarboxylic acid]	500 to 2000
O=C(O)c1ccc2c(c1)C(=O)N(c1ccc(-c3ccccc3)cc1-c1nnn[nH]1)C2=O [Example 2, 1,3-Dioxo-2-[3-(1H-tetrazol-5-yl)-1,1′-biphenyl-4-yl]-2,3-dihydro-1H-isoindole-5-carboxylic Acid]	< 500
Cc1cc(-c2ccccc2)cc(N2C(=O)c3ccc(-c4c[nH]nn4)cc3C2=O)n1 [Compound 88, 2-(6-Methyl-4-phenylpyridin-2-yl)-5-(1H-[1,2,3]triazol-4-yl)-isoindole-1,3-dione]	5000 to 20000
COC(=O)c1ccc(-c2ccc(F)c(F)c2)cc1N1Cc2ccc(-n3cnnn3)cc2C1=O [Compound 121, 3′,4′-Difluoro-3-(1-oxo-6-tetrazol-1-yl-1,3-dihydroisoindol-2-yl)biphenyl-4-carboxylic acid methyl ester]	< 20000
CS(=O)(=O)Nc1ccc2c(c1)C(=O)N(c1cc(-c3ccc(F)c(F)c3)ccc1C(=O)O)C2 [Compound 131, 3′,4′-Difluoro-3-(6-methanesulfonylamino-1-oxo-1,3-dihydro-isoindol-2-yl)-biphenyl-4-carboxylic Acid]	< 20000
CN(C)CCOC(=O)c1ccc2c(c1)C(=O)N(c1cc(-c3ccc(F)c(F)c3)ccc1C(=O)O)C2 [Compound 129, 2-(4-Carboxy-3′,4′-difluorobiphenyl-3-yl)-3-oxo-2,3-dihydro-1H-isoindole-5-carboxylic acid 2-dimethylamino-ethyl ester]	< 20000
CS(=O)(=O)NC(=O)c1ccc2c(c1)C(=O)N(c1cc(-c3ccc(F)c(F)c3)ccc1C(=O)O)C2 [Compound 106, 3′,4′-Difluoro-3-(6-methanesulfonylaminocarbonyl-1-oxo-1,3-dihydroisoindol-2-yl)biphenyl-4-carboxylic Acid]	2000 to 5000
NC(=O)c1ccc(-c2ccccc2)cc1N1C(=O)c2ccc(-c3nnn[nH]3)cc2C1=O [Compound 98, 3-[1,3-Dioxo-5-(1H-tetrazol-5-yl)-1,3-dihydroisoindol-2-yl]biphenyl-4-carboxylic acid amide]	2000 to 5000
CC(C)[C@H](N)C(=O)OCCOC(=O)c1ccc(-c2ccccc2)cc1N1C(=O)c2ccc(-c3c[nH]nn3)cc2C1=O [Compound 74, 3-[1,3-Dioxo-5-(1H-[1,2,3]triazol-4-yl)-1,3-dihydroisoindol-2-yl]biphenyl-4-carboxylic acid 2-{[(2S)-2-amino-3-methylbutanoyl]oxy}ethyl ester]	< 20000
O=C(O)c1ccc(-c2ccccc2)cc1N1C(=O)c2ccc(-c3nnn[nH]3)cc2C1=O [Compound 95, 3-[1,3-Dioxo-5-(1H-tetrazol-5-yl)-1,3-dihydroisoindol-2-yl]biphenyl-4-carboxylic Acid]	< 500
O=C(O)c1ccc2c(c1)C(=O)N(c1cc(-c3ccccc3)ccc1O)C2=O [Example 3, 2-(4-Hydroxy[1,1′-biphenyl]-3-yl)-1,3-dioxo-2,3-dihydro-1H-isoindole-5-carboxylic Acid]	500 to 2000
